Literature values as cited in paper PMC3480357, “Fragment-Hopping-Based Discovery of a Novel Chemical Series of Proto-Oncogene PIM-1 Kinase Inhibitors” (PLoS ONE, 2012).

How the values were obtained:
Set-up in all cases: method as in PMID 21051136
Conditions in all cases: 10 µM; average of two data points; cited from earlier work
EGF-R = EGF-R (Homo sapiens, UniProt P00533)
IGF1-R = IGF1-R (Homo sapiens, UniProt P08069)
MET = MET (Homo sapiens, UniProt P08581)
PAK1 = PAK1 (Homo sapiens, UniProt Q13153)
PAK1, sequence (Q13153 whole entry): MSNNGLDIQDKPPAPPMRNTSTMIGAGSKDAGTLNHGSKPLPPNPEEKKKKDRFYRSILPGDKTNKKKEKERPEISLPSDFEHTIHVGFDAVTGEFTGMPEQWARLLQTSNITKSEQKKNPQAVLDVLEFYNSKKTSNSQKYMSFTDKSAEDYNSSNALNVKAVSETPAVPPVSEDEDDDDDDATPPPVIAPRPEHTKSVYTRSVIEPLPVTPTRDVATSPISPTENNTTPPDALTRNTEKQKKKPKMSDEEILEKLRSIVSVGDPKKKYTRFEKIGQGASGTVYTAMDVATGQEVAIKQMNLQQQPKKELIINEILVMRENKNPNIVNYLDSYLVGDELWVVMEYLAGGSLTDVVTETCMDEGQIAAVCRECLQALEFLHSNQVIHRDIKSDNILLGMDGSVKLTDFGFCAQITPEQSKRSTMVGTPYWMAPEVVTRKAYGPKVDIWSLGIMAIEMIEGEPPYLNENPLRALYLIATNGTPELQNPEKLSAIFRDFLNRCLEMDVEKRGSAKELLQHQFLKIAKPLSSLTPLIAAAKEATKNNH

IGF1-R, sequence (P08069 31-1367, species assumed): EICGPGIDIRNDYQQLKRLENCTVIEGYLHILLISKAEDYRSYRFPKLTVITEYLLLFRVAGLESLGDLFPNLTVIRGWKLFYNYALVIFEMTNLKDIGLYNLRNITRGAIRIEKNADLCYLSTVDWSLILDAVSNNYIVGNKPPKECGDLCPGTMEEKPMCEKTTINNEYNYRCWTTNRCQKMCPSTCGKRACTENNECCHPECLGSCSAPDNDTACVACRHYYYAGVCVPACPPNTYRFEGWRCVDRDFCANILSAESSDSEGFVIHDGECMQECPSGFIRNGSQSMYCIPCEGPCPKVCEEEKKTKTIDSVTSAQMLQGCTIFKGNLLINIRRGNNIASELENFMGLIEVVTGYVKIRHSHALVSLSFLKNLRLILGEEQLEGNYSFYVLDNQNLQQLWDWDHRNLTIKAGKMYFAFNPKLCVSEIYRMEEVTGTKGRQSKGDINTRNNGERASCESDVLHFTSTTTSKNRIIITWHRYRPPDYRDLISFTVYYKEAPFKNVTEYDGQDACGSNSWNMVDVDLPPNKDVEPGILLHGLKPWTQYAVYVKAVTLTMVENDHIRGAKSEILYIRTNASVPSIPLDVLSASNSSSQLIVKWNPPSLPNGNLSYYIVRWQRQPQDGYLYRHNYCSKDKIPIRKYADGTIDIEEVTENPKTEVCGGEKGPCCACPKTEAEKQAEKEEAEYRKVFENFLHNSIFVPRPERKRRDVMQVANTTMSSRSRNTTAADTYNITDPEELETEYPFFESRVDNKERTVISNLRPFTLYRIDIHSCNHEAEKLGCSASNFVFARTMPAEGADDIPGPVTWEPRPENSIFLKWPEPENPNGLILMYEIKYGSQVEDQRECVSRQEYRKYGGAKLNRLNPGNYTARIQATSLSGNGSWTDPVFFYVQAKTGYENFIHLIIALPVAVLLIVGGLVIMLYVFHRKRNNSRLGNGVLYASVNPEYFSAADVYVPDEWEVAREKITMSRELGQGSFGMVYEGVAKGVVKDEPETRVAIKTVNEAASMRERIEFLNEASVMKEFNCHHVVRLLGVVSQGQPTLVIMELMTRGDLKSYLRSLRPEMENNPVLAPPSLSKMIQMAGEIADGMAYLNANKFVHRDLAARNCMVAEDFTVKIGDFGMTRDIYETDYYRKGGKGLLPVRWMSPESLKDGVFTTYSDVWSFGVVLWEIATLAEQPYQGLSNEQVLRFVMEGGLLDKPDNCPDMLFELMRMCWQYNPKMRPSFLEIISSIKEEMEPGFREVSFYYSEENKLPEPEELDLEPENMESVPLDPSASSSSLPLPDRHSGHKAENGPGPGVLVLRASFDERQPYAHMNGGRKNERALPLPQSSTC
MET, sequence (P08581 25-1390): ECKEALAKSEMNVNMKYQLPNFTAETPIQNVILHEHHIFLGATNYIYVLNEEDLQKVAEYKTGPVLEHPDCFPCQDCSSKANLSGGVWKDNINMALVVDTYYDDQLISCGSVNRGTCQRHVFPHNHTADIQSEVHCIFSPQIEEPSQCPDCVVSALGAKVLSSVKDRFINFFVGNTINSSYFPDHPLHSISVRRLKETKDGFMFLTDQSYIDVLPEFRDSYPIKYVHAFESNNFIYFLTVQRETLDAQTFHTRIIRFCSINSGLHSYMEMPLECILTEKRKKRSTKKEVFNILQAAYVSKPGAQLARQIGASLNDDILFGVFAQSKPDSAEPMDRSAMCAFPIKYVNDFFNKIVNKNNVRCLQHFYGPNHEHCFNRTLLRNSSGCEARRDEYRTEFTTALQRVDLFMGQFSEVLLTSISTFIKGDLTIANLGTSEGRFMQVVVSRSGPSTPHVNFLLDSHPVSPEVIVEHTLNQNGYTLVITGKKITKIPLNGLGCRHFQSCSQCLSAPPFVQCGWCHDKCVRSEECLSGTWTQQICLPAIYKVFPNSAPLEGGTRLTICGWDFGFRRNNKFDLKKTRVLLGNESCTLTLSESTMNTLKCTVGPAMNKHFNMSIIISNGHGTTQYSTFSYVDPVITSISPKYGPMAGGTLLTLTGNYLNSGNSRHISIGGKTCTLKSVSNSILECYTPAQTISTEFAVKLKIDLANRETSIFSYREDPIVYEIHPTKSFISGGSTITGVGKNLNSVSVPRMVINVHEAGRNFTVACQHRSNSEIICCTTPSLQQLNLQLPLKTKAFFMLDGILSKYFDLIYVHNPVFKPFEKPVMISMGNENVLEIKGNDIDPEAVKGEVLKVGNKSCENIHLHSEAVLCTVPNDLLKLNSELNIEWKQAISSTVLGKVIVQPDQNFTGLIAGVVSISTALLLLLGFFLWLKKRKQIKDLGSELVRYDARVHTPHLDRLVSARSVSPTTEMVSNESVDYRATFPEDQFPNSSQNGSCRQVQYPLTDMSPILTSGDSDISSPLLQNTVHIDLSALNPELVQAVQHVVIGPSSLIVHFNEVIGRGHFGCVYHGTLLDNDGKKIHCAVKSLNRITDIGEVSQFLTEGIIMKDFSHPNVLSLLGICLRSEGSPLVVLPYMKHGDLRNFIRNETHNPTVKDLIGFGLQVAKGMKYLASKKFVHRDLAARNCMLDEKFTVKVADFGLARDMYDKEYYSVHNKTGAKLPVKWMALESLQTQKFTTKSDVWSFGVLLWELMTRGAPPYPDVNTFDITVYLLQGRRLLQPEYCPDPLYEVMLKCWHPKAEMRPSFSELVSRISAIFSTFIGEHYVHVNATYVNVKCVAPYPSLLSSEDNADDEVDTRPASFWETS
EGF-R, sequence (P00533 25-1210, species assumed): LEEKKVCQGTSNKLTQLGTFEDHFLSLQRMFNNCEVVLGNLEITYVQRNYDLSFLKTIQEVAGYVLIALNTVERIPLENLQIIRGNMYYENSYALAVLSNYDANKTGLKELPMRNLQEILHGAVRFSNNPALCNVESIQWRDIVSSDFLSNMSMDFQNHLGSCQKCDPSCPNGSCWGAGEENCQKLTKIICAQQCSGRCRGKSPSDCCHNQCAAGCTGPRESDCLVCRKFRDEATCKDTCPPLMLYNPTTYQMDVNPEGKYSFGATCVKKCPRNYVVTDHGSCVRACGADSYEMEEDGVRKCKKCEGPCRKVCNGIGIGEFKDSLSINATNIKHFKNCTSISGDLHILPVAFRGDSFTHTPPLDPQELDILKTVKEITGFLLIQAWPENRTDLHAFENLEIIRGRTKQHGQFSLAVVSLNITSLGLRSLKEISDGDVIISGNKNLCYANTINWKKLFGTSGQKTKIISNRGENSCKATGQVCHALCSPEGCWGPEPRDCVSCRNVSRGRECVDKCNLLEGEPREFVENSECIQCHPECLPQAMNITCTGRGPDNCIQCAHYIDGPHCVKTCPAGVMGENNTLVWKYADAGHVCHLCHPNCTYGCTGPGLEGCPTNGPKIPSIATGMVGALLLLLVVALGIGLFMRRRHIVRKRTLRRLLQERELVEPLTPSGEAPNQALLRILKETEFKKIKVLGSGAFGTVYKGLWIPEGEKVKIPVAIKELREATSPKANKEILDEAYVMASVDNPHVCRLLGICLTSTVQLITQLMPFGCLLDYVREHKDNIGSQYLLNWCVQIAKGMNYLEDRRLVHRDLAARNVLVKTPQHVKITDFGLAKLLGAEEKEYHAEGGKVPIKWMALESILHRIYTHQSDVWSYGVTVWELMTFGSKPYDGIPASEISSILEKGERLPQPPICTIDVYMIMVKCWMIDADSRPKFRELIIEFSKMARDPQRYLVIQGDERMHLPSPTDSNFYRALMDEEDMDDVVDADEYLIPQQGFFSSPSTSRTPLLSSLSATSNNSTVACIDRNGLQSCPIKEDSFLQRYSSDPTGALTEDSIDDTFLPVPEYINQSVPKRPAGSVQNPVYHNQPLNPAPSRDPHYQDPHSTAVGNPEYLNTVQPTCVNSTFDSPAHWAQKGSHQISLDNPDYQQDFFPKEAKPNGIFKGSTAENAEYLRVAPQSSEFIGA

Oc1ccc(-c2cnc3ccc(NCc4ccc(F)cc4)nn23)cc1 [Compound 1]
EGF-R percentage of inhibition (EGF-R): 33% | IGF1-R percentage of inhibition (IGF1-R): 26% | MET percentage of inhibition (MET): 32% | PAK1 percentage of inhibition (PAK1): 7%
